“Also recorded” adds a separate entry of the source.
What was measured:
[1] = tested on: P. aeruginosa; format: cell-based, Pseudomonas aeruginosa; conditions: lower concentrations
Method: Mature small airway chips at air-liquid interface (ALI) were gently washed with PBS to remove excess mucus. Cells were inoculated with 2-3×10^6 colony forming units (CFUs) in Hank's balanced salt solution (HBSS) for 2 hours. At the end of the incubation, the inoculum was removed and the cells were washed 3× with phosphate buffer saline (PBS) to remove any nonadherent bacteria. PBS was removed and cells were incubated at ALI up to 24 hours (h) under flow in the bottom channel but not in the top channel.
After an exemplary on-chip infection protocol, including removing nonadherent bacteria, a test compound was immediately added to the top (apical) and bottom (basal) channels then cells are cultured under flow using media containing the anti-microbial compound, for 24 hours. Exemplary test compound amounts are at least 0.1 μg/ml, up to 50 μg/ml, up to 100 μg/ml, up to 500 μg/ml. In one embodiment, an exemplary test compound is a drug Imipenem.
More specifically, in one embodiment of an Airway on-chip, duplicate chips were infected with PA 5919 WT or PA 5890 Mutant as described herein. Then, Imipenem was added to apical and basolateral fluids (cell media) for treatment with Imipenem at 50, 100 and 500 μg/ml for 24 hours with at least one chip without Imipenem. […] Lysates were serially diluted for CFU quantification. […]
Assay readouts: Viability of extracellular bacteria (apical sampling). […]

[2] = tested on: human neutrophil; assay: Neutrophil adhesion, crawling and trans-migration out of the endothelial channel, HRV-16 infected Airway-on-Chip; format: cell-based; conditions: HRV-16 24 hpi
From the text: Once recruited to the endothelium, neutrophil movement can be recorded and extravasation monitored as N (number) of spots vs. time (e.g. up to 300-600 seconds).
Thus, migratory cell potential, as extravasation, is identified in graphs below each of these micrographs, FIG. 15A and FIG. 15B, showing the number of white spots (N spots) counted over time for each treatment. For HRV-16 infection alone, the number of spots decreases as the cells move into the cell layer, see, FIG. 15C. […] Extravasation in general refers to the movement of white blood cells into the tissues surrounding them (e.g. leukocyte extravasation), also known as diapedesis.

[3] = tested on: human neutrophil; assay: Neutrophil recruitment/attachment in Airway-on-Chip model of acute asthma exacerbation (HRV-16 infection, IL-13 stimulation); format: cell-based
Method: In this embodiment, an exemplary respiratory virus, e.g., Rhinovirus, was added to the upper channel of the chip, IL-13 was used to stimulate cells, and neutrophils were added to the lower channel, see, FIG. 14A.
See, FIG. 14B and FIG. 14C.
HRV-16 is represented as small green dots in the upper channel while neutrophil cells (also described as polymorphonuclear leukocytes (PMN)) are represented as large purple spots in the lower channel. […] Treatments included HRV-16 alone infected cells, IL-13 alone treated cells, HRV-16 and (+) IL-13 treated cells, HRV-16+CXCR2in (inhibitor) treated cells, and HRV-16+IL-13+CXCR2in. […] FIG. 14C is a graphical comparison showing PMN (neutrophil) cells counts as % of untreated cells and cells treated with combinations shown for IL-13, HRV, and CXCR2 (in) treatments. Quantification of neutrophil recruitment (** p<0.01; **** p<0.001).

[4] = tested on: host cells of Airway On-Chip; assay: TUNEL apoptosis staining on Airway On-Chip; format: cell-based, human; conditions: 3 μM for 3 h at 37° C.; positive control
Method: One embodiment of an Airway On-Chip was infected as described above for 2 hours and then treated 50 μg/ml tetracycline for 24 h (top and bottom channels under flow) for 24 h in order to limit bacterial replication (to avoid over-replication and cell lifting). Using this methodology, we performed longer infections on an airway chip and avoided cell death at 24 h. At 24 h, chips were fixed with 4% paraformaldehyde for 15 minutes and subsequently permeabilized with 0.25% triton in PBS. Apoptosis staining was performed following the Click-iT™ Plus TUNEL Assay for In Situ Apoptosis Detection, Alexa Fluor 647 assay: Click-iT™ Plus TUNEL Assay, Thermo Fisher Scientific Inc., 6 Nov. 2017.
The TUNEL assay is based on the incorporation of modified dUTPs by the enzyme terminal deoxynucleotidyl transferase (TdT) at the 3′-OH ends of fragmented DNA, a hallmark as well as the ultimate determinate of apoptosis. ClickiT™ Plus TUNEL assay with the Alexa Fluor™ 647 dye was utilized to detect the fragment DNA (purple), nuclei were labelled with DAPI.
Staurosporin, a prototypical ATP-competitive kinase inhibitor, was used as a positive control in this assay. […] As an additional positive control, chips were treated with 1 unit of DNAse I for 30 minutes at room temperature to induce TUNEL positive DNA strand breaks.

[5] = tested on: goblet cells; assay: IL-13 induced goblet cell hyperplasia in Airway-on-Chip (MUC5AC staining); format: cell-based, human
From the text: As an exemplary immuno-modulatory compound, addition of IL-13 to an Airway-on-Chip induced changes in epithelial cell layers in the upper channel with an air interface and endothelial cells in the lower channel under media fluid flow conditions are shown. It was discovered that IL-13 added to this embodiment of Airway-on-Chip effects both the epithelial cell layer in the upper channel with an air interface and the endothelial cells in the lower channel under media flow conditions. FIG. 9A is a schematic illustration showing IL-13 in the context of an Airway-on-Chip, where IL-13 effects both epithelial cells in the upper channel with an air interface and endothelial cells in the lower channel under flow (left). […] IL-13 is added to the endothelial channel at an exemplary 100 ng/ml for an exemplary 7 days.
This hyperplasia effect can be inhibited by Tofacitinib, an inhibitor of the JAK/STAT pathway (Janus Kinase (JAK) and Signal Transducer and Activator of Transcription (STAT)).
Creation of a Th2 microenvironment through IL-13 stimulation induces an asthma-like phenotype in the Airway Chip. Exacerbation is then triggered by infecting with human rhinovirus 16. […]

[6] = tested on: Human Airway Epithelium; assay: Cilia beating frequency on-chip; format: cell-based; conditions: IL-13 stimulation
[7] = tested on: IFN-λ1, IP-10/CXCL10, IL-6 secretion; assay: Interferon, chemokine and cytokine secretion after HRV16 infection of Airway Chips; format: cell-based, human
From the text: HRV-16-induced interferons, chemokines and pro-inflammatory cytokines profile is altered by IL-13 treatment in the severe asthma chip as shown by high resolution, kinetic profiles of cytokine secretion. These graphs (FIG. 17A-C) show results using a method for identifying secretory phases (i.e. I, II, III, and IV) of essential inflammatory cytokines.
FIG. 17A-C HRV-16-induced interferons, chemokines and pro-inflammatory cytokines profile is altered by IL-13 treatment in one embodiment of a severe asthma on-chip. These exemplary graphs show results from high resolution, kinetic profiles of an IFN Lambda 1 response FIG. 17A; IP-10/CXCL10 FIG. 17B; IL-6 response FIG. 17C; following HRV16 infection. A severe asthma on-chip was stimulated with IL-13 (lower red line and squares) while a duplicate chip was not stimulated with IL-13 (upper blue line and circles). IL-13 treatment was over 72 hours post infection. Data represent mean±SEM of cells from three to four different donors, with one or two biological replicates (chips) per donor.
Charts show IFN-λ1 (pg/mL) and IP-10/CXCL10 (pg/mL) measured in apical and basal secretions collected at 24, 48 and 72 h post HRV16 infection comparing control, IL-13 alone, HRV-16 alone and combined treatments.
Thus, IL-13 may delay or prevent IL-6-driven resolution of HRV-induced inflammation. Charts (i.e. readouts) show IL-6 (pg/mL) and IL-8 (pg/mL) measured in apical and basal secretions collected at 24, 48 and 72 h post HRV16 infection comparing control, IL-13 alone, HRV-16 alone and combined treatments.

[8] = tested on: HRV-16; assay: HRV-16 one step growth curves in infected Airway chips treated with IL-13 or not; format: cell-based, human rhinovirus 16; conditions: HRV-16 MOI=2
Method: An exemplary virus, Human rhinovirus 16 (HRV16: A16 or type 16, referring to a single stranded RNA virus), in capsid form, was added at a multiplicity of infection of 2 to the upper channel and incubated at 33° C. for 3 hours. Infected chips (n=3) were washed apically (upper channel) daily and replicating virus in the wash fluid was quantified. HRV16 Titer (Log 10 TCID 50/mL) vs time post infection (hours). TCID50 refers to a tissue culture infectious dose, which will infect 50% if the cells in a monolayer challenged with the viral inoculum.

[9] = tested on: endothelial cells; assay: IL-13 effects on endothelial cells of Airway-on-Chip (adhesion molecule gene and protein expression); format: cell-based, human
From the text: Induced gene expression for adhesion molecules was also observed after IL-13 treatment, FIG. 9C. Examples of IL-13 induced Selectins (P and E) and ICAM-1 (Intercellular Adhesion Molecule 1) and VCAM-1 (vascular cell adhesion molecule-1). Doerr, “The condition-dependent proteome.” Nat Methods. 2016 Febuary; 13(2):117.
Other compounds tested included Interleukin alpha (IL1A), Interleukin beta (IL1B), Interleukin-6 (IL6), Interleukin-8 (IL8), The chemokine (C-C motif) ligand 2 (CCL2), C-C Motif Chemokine Receptor 4 (CCR4), Protein Tyrosine Phosphatase, Receptor Type C (PTPRC), Intercellular Adhesion Molecule 1 (ICAM1), Selectin P (SELP), Selectin E (SELE), Prostaglandin-Endoperoxide Synthase 2 (PTGS2), Transforming Growth Factor Beta 1 (TGFB1), SMAD Family Member 7 (SMAD7), Complement C3 (C3), Angiotensin I Converting Enzyme (ACE), cluster of differentiation 34: CD34 antigen: CD34 molecule (CD34) and Nuclear Factor Of Activated T-Cells 4 (NFATC4).
In one embodiment, an asthma phenotype was generated using IL-13 stimulation. This stimulation led to the activation of human endothelium at 48 hours of treatment. IL-13 induces vessel (endothelial cell) wall priming as part of recruitment of immune cells. […] IL-13 100 ng/mL (right panels) vs. no treatment controls (left panels) VE-Cadherin (red), ICAM-1 (green) in the upper panels. VCAM-1 (red) VE-Cadherin (green). […]

Compound: C[C@@H](O)[C@H]1C(=O)N2C(C(=O)O)=C(SCCN=CN)C[C@H]12 [Imipenem]
- permeability of airway cells to imipenem [1]: impermeable

Compound: CC[C@@H](Nc1c(Nc2cccc(C(=O)N(C)C)c2O)c(=O)c1=O)c1ccc(C)o1 [MK-7123]
- adhesion of neutrophil cells on endothelial cell surfaces ([2]; 10 microliters of CXCR2 inhibitor added to the lower channel, vs no treatment): reduced adhesion of neutrophil cells
- number of spots (neutrophil cells, N spots) counted over time (extravasation) ([2]; up to 600 seconds): remains about the same
- neutrophil mobility (crawling) and trans-migration ([2]; severe asthma chip, 10 μM): reduces neutrophil mobility and limits trans-migration
- inhibition of relevant physiological responses (neutrophil recruitment) ([3]; CXCR2 antagonist 10 μM): greater than 90%
- neutrophil attachment in the lower channel ([3]; HRV-16 infections, with or without IL-13 stimulation): reduced neutrophil attachment
- neutrophil recruitment ([3]; MK-7123 10 microM, three stimulation conditions (HRV-16, IL-13, IL-13+HRV)): inhibits neutrophil recruitment; also recorded: significantly reduced neutrophil recruitment
- neutrophil attachment in the lower channel ([3]; cells stimulated with IL-13 alone): increased attachment

Compound: CN[C@@H]1C[C@H]2O[C@@](C)([C@@H]1OC)n1c3ccccc3c3c4c(c5c6ccccc6n2c5c31)C(=O)NC4 [Staurosporin]
- apoptotic cell numbers (TUNEL) [4]: increased apoptotic cell numbers

Compound: C[C@@H]1CCN(C(=O)CC#N)C[C@@H]1N(C)c1ncnc2[nH]ccc12 [Tofacitinib]
- effect on IL-13 induced goblet cell hyperplasia ([5]; IL-13+Tofacitinib): inhibited

Compound: IL-13: TH2 cytokine used to stimulate an asthma-like phenotype on-chip
- cilia beating frequency [6]: reduces cilia beating frequency
- epithelial interferon response after HRV-16 infection ([7]; apical/basal secretions, 24-72 h post infection): impairs epithelial interferon response; also recorded: reduces HRV16-induced interferon response
- kinetic profile of IFN Lambda 1, CXCL10 and IL-6 secretion ([7]; over 3 days (72 hours) post HRV16 infection): inhibits secretion of IFN Lambda 1, CXCL10 and IL-6
- HRV16-induced IL-6 secretion ([7]; prior stimulation with IL-13, 24, 48, 72 h post infection): inhibited
- HRV infectivity (HRV-16 growth) [8]: does not alter HRV infectivity
- adhesion molecule (ICAM-1, VCAM-1, VE-Cadherin) protein expression, immunostaining ([9]; IL-13 100 ng/mL, 48 hours): increased adhesion molecule expression
- adhesion protein gene expression in endothelial cells (fold over non-treated) ([9]; IL-13 treatment): up regulates adhesion proteins
- neutrophil recruitment ([3]; IL-13+HRV vs either alone): additive increase in neutrophil recruitment
- neutrophil recruitment ([3]; IL-13-treated chips vs non-stimulated chips): increased neutrophil recruitment
- goblet cell hyperplasia ([5]; IL-13 100 ng/ml, 7 days, endothelial channel): induced goblet cell hyperplasia
